In EP4781984A1 (Beyang Therapeutics Co., Ltd., priority 2023, dated 2025):
Entries after “also recorded” stand apart in the source; their conditions may differ.

Columns and labels:
[1] = background statement on the known drug; cited from earlier work
[2] = Plasma and ocular tissue distribution after single ocular administration in Dutch Belted rabbits (Example 6); format: in vivo; details: single eye drop 1 mg/mL (0.05 mg/eye, 50 µL/eye), 0.5, 4 or 8 hours
Source text: Detection of Plasma and Ocular Tissue Distribution of Compounds after Single Ocular Administration in Dutch Belted Rabbits
Age-related macular degeneration and diabetic retinopathy are associated with neovascularization in the posterior segment of the eye. A major problem with topical eye drops for treating posterior segment disorders is the inefficient delivery of the agent to the posterior segment sites due to the corneal and conjunctival barriers. Therefore, it is important to measure the distribution of compounds from ocular formulations in several major ocular tissues. […] This experiment used Dutch Belted rabbits. […]
Male Dutch Belted rabbits used in this experiment were purchased from Pizhou Dongfang Breeding Co., Ltd., with animal weights ranging from 1.5 to 2.5 kg. […] All prepared dosing formulations were freshly prepared on the day of administration, sampled, and the actual concentration of the dosing formulation was determined.
On the day of the experiment, animals were administered 1 mg/mL (0.05 mg/eye, 50 µL/eye). […] The concentrations of each analyte in rabbit ocular tissues and plasma obtained in this experiment were determined using an LC-MS/MS analytical method. […] BLOQ (Below the Limit of Quantification) is the lowest analyte concentration that can be quantified with acceptable precision and accuracy. […]

[3] = Thermodynamic solubility test; format: physicochemical; details: buffer solution, aqueous buffer, thermodynamic from solid; positive compound
Method in brief: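 Samples sonicated 10 min, shaken 8 h at room temperature, re-sonicated and centrifuged at 13000 rpm for 15 min. Supernatant recentrifuged and analysed by LC-MS, with concentrations quantified against a 3–5 point calibration curve.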

solubility thermodynamic at 8 h [3]: < 2 µg/mL
Compound: CNC(=O)c1ccccc1Sc1ccc2c(/C=C/c3ccccn3)n[nH]c2c1 [Axitinib]
solubility [1]: < 2 µg/mL | drug concentration in retina [2]: below the lower limit of quantification; also recorded: below BLOQ
